From patent US20260325575A1, “THE USE OF BORATE DERIVATIVES IN THE TREATMENT OF NEURODEGENERATIVE DISEASES” (YEDITEPE UNIVERSITESI, priority 2022, published 2026)

Assays:
[1] = test system: SHSY5Y cells differentiated into neuron cells; experiment: Cytotoxicity analysis (MTS); type: cell-based, human; conditions: 24 hours, neuronal cells
Protocol: (§1) SHSY5Y cells stocked in cryo tubes at −80° C. or liquid nitrogen were kept in a water bath at 37° C. until completely solved. The solved cells were transferred to 15 ml Falcon tubes containing 5 ml cell medium and centrifuged at 300×g for 5 minutes. After centrifugation, the medium on the cells was removed and the cells were solved with 1 ml of fresh medium using a pipette. Then, the cells were transferred to cell flask containing 12 ml DMEM/F12 medium and incubated at 37° C. for 24±2 hours in an incubator containing 5% CO2.
(§2) The next day, the medium on the adherent cells was changed and incubation was continued until the cells formed 85%-90% monolayer […]. The medium of the monolayered cells was removed and the cells were washed with 5 ml PBS. […]
(§3) After the incubation period was completed, the medium on the cells was removed and the cells were washed again with 1 ml PBS. […] At the end of the tenth day, neuronal cells were ready.
(§4) After the incubation period was completed (24 hours), the medium on the cells was removed and replaced with 10% MTS solution prepared in the cell medium. […] After incubation, absorbance measurements were made using an ELISA plate reader at 490 nm. From the absorbance values obtained, cell viability was calculated according to the formula ((Mean Cell Abs./Mid. Negative Con. Abs.)*100). […]

[2] = test system: SOD1 G93A transgenic mice; experiment: Rotarod test (motor performance) in SOD1 G93A transgenic mice; type: in vivo, mouse (C57BL/6 SOD1 G93A; conditions: 200 mg/kg by gavage every other day for 3 weeks; vs transgenic control (water); 14 rpm, max 180 s; n=8
Protocol: In the in vivo studies conducted, the SOD1 G93A transgenic mice model, which is one of the most preferred animal models for modeling ALS disease, was used. In the study (n=8); SPT and NaB were administered to the animals every other day by gavage. As a result of the comparison of the motor functions of these transgenic animals that received SPT and NaB throughout the experiment with the motor functions of the transgenic control (water) group, it was observed that SPT increased the performance of the rotarod test by 88.4% in the SOD1 G93A model compared to the control group (P<0.01). […] In the group that received water, it was observed that the findings aggravated over time and the rotarod performance decreased.
Example 1 Information about the Experimental Animals Used
Example 2 Experimental Groups
Example 3 Substance Administration
SPT or NaB derivatives at 200 mg/kg per mouse were vortexed at high speed and dissolved in the daily drinking water of the mice. […]
The mice were acclimatized with the rotarod test apparatus for one day before their motor function was tested and their performance was recorded at the end of the second day. Their motor performances were measured three times for a maximum of 180 seconds at a constant speed of 14 rpm, and their longest residence time on the apparatus was recorded. […]

[3] = test system: SOD1 G93A transgenic mice; experiment: Neuroscoring, phenotypic characteristics of NS1 phase; type: in vivo, mouse (C57BL/6 SOD1 G93A
Protocol: SPT or NaB derivatives at 200 mg/kg per mouse were vortexed at high speed and dissolved in the daily drinking water of the mice. Borate Solutions prepared thus in drinking water were administered to mice by gavage every other day for 3 weeks. The control group received only the same amount of drinking water by gavage.
In order to observe during the experiment the stages when early and late symptoms of the disease occur, wild-type and transgenic animals were subjected to neuroscoring as described in the study by Hatzipetros et al. In this way, it was aimed to observe whether the administration to the animals caused any difference in the onset, course and severity of ALS symptoms. For this, the table of the disease course is graded with a scoring System as follows: • 1. Neuro Score 0 (NS 0, Pre-symptomatic): When suspended by the tail, the mouse can fully extend its hindlimbs away from the lateral midline to the side in a normal manner and stay in this position for at least two seconds or longer. When the mouse is allowed to walk, normal gait is observed. • 2. NS 1 (First symptoms): When the mouse is suspended by the tail, its hindlimbs cannot fully extend away from the lateral midline, they partially collapse backwards or the hindlimbs are observed to tremble (tremor). Towards the end of the phase, gait disturbances and slow gait (ataxia) begin. The first symptoms usually appear as of day 90. • 3. NS 2 (Partial paralysis, paresis): When the mouse is suspended by the tail, its hindlimbs are partially or completely collapsed, or cannot extend much, there is still joint movement. When the mouse is allowed to walk, it can use its hindlimbs for forward motion, however it is observed that its toes curl backwards at least twice during a 90 cm walk or it can move by dragging its feet. When the mouse is placed on its left or right side, it is able to right itself within 10 seconds. • 4. NS 3 (Paralysis): When the mouse is suspended by the tail, it is observed that there is rigid paralysis in its hindlimbs or minimal joint movement. When the mouse is allowed to walk, it is observed that there is forward motion however it cannot use its hindlimbs. When the mouse is placed on its left or right side, it is observed that it is able to right itself within 10 seconds. • 5. NS 4 (Humane end-point): When the mouse is suspended by the tail, it is observed that there is rigid paralysis in its hindlimbs. When the mouse is allowed to walk, no motion is observed, when the mouse is placed on its left or right side it is observed that it is not able to right itself within 10 seconds, i.e., absence of righting reflex.
According to this scoring system, if we divide the symptoms observed in animals into phases according to the order of occurrence, 50-80 days after birth can be considered pre-symptomatic. Since as of day 90 the first symptoms start to appear, we can consider this date as the beginning of the early symptomatic phase and also the beginning of neuroscore 1. Although it can vary, this period can last 20-38 days and also covers the neuroscore 2 phase. As of day 120 on average, the process is called late symptomatic. Although it may last a little longer in females, this period lasts 5-10 days on average and neuroscore 3 and 4 phases are also observed during this late symptomatic period

[4] = test system: gene expression in brain and spinal cord tissues of transgenic mice; experiment: Microarray gene expression and pathway analysis (PANTHER GO) in brain and spinal cord; type: in vivo, mouse (C57BL/6 SOD1 G93A; conditions: transgenic animals, n=3
Protocol: FIG. 2. is a representation of the gene expressions of the other groups compared to the transgenic control group in the form of a heat map, as a result of the microarray analysis performed on the spinal cord materials of the transgenic and wild type experimental groups (n=3 per group) that received NaB, SPT and water only. (Statistical differences between groups were compared using Volcano plot analysis (two-way ANOVA; P values<0.05) and fold change ±2 and more were considered statistically significant).
FIG. 3. is a representation of some of the pathways in which SPT and NaB derivatives are found to be effective as a result of the pathway analysis (PANTHER Gene Ontology (GO) Classification and Pathway System) and of the number of genes located in these pathways (Total number of genes: 2677, total number of hits: 443).
In addition to measurements of motor function, in order to investigate whether derivatives induce any gene-based changes in the Central nervous system, brain and spinal cord materials were collected from wild type and transgenic control (water), NaB and SPT group animals with n=3 and RNA was isolated from these materials and microarray analysis was performed. […]

[5] = Cytotoxicity analysis (MTS); type: cell-based, human; conditions: human, differentiated sh-sy5y cells, neuronal cells, read-out: non-toxic concentration
Protocol: as §1, §2, §3, §4

[6] = test system: Amyloid beta plaques in SHSY5Y cells differentiated into cholinergic neurons; experiment: Amyloid beta plaques in Alzheimer's model, immunocytochemistry (fluorescence); type: cell-based, human
Protocol: SH-SY5Y cells were seeded in 6-well plates with 250×10^5 cells in each well and incubated with medium containing DMEM/F12, 10% FBS, 1% PSA at 37° C. in 5% CO2 for 24 hours. Then, the medium on the cells was removed and each well was washed with 1 ml PBS. Then, 2 ml of differentiation medium (1% FBS, 10 μM/ml RA) was added to each cell well and cells were incubated for 72 hours.
After the incubation period was completed, the medium on the cells was removed and the cells were washed again with 1 ml PBS. Afterwards, 2 ml of differentiation medium (1% FBS, 10 μM/ml RA, 10 μg/ml BDNF) was added to the cells and incubated for 72 hours. The same procedure was repeated on the seventh day. At the end of the tenth day, neuronal cells were ready.
Obtaining Alzheimer's Model and Evaluation of Active Substances
Immunocytochemistry Analysis
The old media on the incubated cells were removed and the cells were washed three times with 1 ml PBS.
Firstly, cells were fixed with 1 ml of 2% paraformaldehyde for 30 min at room temperature and then washed three times with PBS. […]
After incubation, the cells were washed three times with PBS. […] Finally, the cells were washed three times with PBS and measurements were taken with a fluorescence microscope (Zeiss).
The data obtained from the immunocytochemistry study were analysed using Image J (National Institutes of Health) and MS Excel.

[7] = test system: ALS patients; conditions: cited from earlier work
[8] = day 90, 200 mg/kg by gavage every other day, tg mice
[9] = day 110, 200 mg/kg by gavage every other day, tg mice

## Amyloid Beta: Amyloid Beta (Aβ), applied to differentiated SHSY5Y cells to create an Alzheimer's model [reference compound]
[1]
  non-toxic concentration: 4 µg/mL

## O.O.O.O.O.O=BO[B-](OB=O)(OB=O)OB=O.[Na+] [NaB, sodium; tetrakis(oxoboranyloxy)boranuide; pentahydrate]
[2]
  increase in rotarod performance compared to the control group: 62.45%
[3]; animals still in NS1 at end of experiment, vs control group
  classical symptoms of stage 1 (NS1) at the end of the experiment (hindlimb retraction, tremor and ataxia): considerably weaker than those in the control group
[3]; day 80, before administration, tg mice
  s3 (ataxia), day 80 (t = 0): very mild
[3]; [8]
  s1 (hindlimb retraction), day 90 (onset of the disease-NS1): mild
  s2 (tremor), day 90 (onset of the disease-NS1): mild
  s3 (ataxia), day 90 (onset of the disease-NS1): mild
[3]; [9]
  s1 (hindlimb retraction), day 110 (experiment endpoint): moderate
  s2 (tremor), day 110 (experiment endpoint): moderate
  s3 (ataxia), day 110 (experiment endpoint): moderate
[4]
  gene expression compared to transgenic control / wild type: reversed the gene expression at a statistically significant rate, approximating it to the gene expression level in wild type animals
[5]
  MNTC at 24 h: 5 µg/mL
[6]; 24 hours, substance alone (ONaB or OAβ group)
  cells with Amyloid beta plaques: 0%
[6]; Homo sapiens, SH-SY5Y, 24 h, read-out: plaques dissolved in Aβ+NaB group compared to the OAβ group
  inhibition at 5 µg/mL: 92.4%

## Nc1nc2ccc(OC(F)(F)F)cc2s1 [Riluzole]
[7]
  extension of patient's life span: approximately a few months
